Calls of active or inactive are those of the source. The rule behind the calls is not given here.
Key:
[1] = Cytotoxicity against mouse Splenocyte by MTT assay; format: toxicity, cell-based; conditions: splenocytes
B-cell line = assay: Immunosuppressive activity in mouse B-lymphocyte assessed as reduction in LPS-induced cell proliferation incubated for 48 hrs; format: functional, cell-based
[2] = Immunosuppressive activity in mouse T-lymphocyte assessed as reduction in concanavalin A-induced cell proliferation incubated for 48 hrs; format: functional, cell-based
Mus musculus [3] = assay: Antiinflammatory activity in DSS-induced male C57BL/6 mouse model of inflammatory bowel disease assessed as recovery from body weight loss at 40 mg/kg/day, po measured after 7 days relative to control; format: functional; conditions: time 7 day
[4] = Selectivity ratio of CC50 for cytotoxicity against mouse Splenocyte to IC50 for immunosuppressive activity in mouse T-lymphocyte; format: toxicity; conditions: splenocytes (CC50) and T-lymphocytes (IC50)
[5] = Selectivity ratio of CC50 for cytotoxicity against mouse Splenocyte to IC50 for immunosuppressive activity in mouse B-lymphocyte; format: toxicity; conditions: splenocytes (CC50) and B-lymphocytes (IC50)
Mus musculus [6] = assay: Antiinflammatory activity in DSS-induced male C57BL/6 mouse model of inflammatory bowel disease assessed as recovery from body weight loss at 40 mg/kg/day, po measured after 7 days; format: functional, organism-based; conditions: time 7.0 day
Mus musculus [7] = assay: Antiinflammatory activity in DSS-induced male C57BL/6 mouse model of inflammatory bowel disease assessed as recovery in colon length at 40 mg/kg/day, po measured after 7 days relative to control; format: functional; conditions: time 7 day
Mus musculus [8] = assay: Antiinflammatory activity in DSS-induced male C57BL/6 mouse model of inflammatory bowel disease assessed as restoration of colon length at 40 mg/kg/day, po via gavage measured after 14 days relative to control; format: functional; conditions: time 14 day
Mus musculus [9] = assay: Antiinflammatory activity in male C57BL/6 mouse model of inflammatory bowel disease assessed as recovery of DSS-induced body weight loss at 40 mg/kg/day, po via gavage measured after 14 days relative to control; format: functional; conditions: time 14 day
Mus musculus [10] = assay: Antiinflammatory activity in DSS-induced male C57BL/6 mouse model of inflammatory bowel disease assessed as increase in colon length at 250 mg/kg/day, po via gavage measured upto 14 days relative to control; format: functional; conditions: time <= 14 day

**Q.** With `CC(=O)OC[C@H]1O[C@@H](OC2=C(C)OC(=C3CCN(C(C)=O)CC3)C2=O)[C@H](OC(C)=O)[C@@H](OC(C)=O)[C@@H]1OC(C)=O` as the compound, how does the CC50 [1] read?
**A.** Its CC50 is 38.7 µM.

**Q.** And the IC50 (B-cell line)?
**A.** Its IC50 is 24.9 µM.

**Q.** What about the IC50 [2] of the same compound?
**A.** The IC50 was 48.3 µM.

**Q.** And the Activity (Mus musculus [3])?
**A.** The Activity was 13.9%.

**Q.** And the selectivity ratio [4]?
**A.** Its selectivity ratio is 1.23.

**Q.** What about the selectivity ratio [5] of the same compound?
**A.** Its selectivity ratio is 1.74.

**Q.** And the Activity (Mus musculus [6])?
**A.** The Activity was “Active”.

**Q.** What about the Activity (Mus musculus [7]) of the same compound?
**A.** The Activity was 26.7%.

**Q.** With `C/C=C/C[C@@H](C)[C@@H](O)[C@H]1C(=O)N[C@@H](CC)C(=O)N(C)CC(=O)N(C)[C@@H](CC(C)C)C(=O)N[C@@H](C(C)C)C(=O)N(C)[C@@H](CC(C)C)C(=O)N[C@@H](C)C(=O)N[C@H](C)C(=O)N(C)[C@@H](CC(C)C)C(=O)N(C)[C@@H](CC(C)C)C(=O)N(C)[C@@H](C(C)C)C(=O)N1C` [CYCLOSPORINE] as the compound, how does the IC50 (B-cell line) read?
**A.** Its IC50 is 0.46 µM.

**Q.** With `CC(C)=C1OC(C)=C(O[C@@H]2O[C@H](COC(=O)C(C)(C)C)[C@@H](OC(=O)C(C)(C)C)[C@H](OC(=O)C(C)(C)C)[C@H]2OC(=O)C(C)(C)C)C1=O` as the compound, how does the Activity (Mus musculus [8]) read?
**A.** The Activity was 3.2%.

**Q.** What about the CC50 [1] of the same compound?
**A.** Its CC50 is over 200 µM.

**Q.** And the IC50 (B-cell line)?
**A.** Its IC50 is over 100 µM.

**Q.** And the IC50 [2]?
**A.** Its IC50 is over 100 µM.

**Q.** What about the Activity (Mus musculus [9]) of the same compound?
**A.** The Activity was 41.6%.

**Q.** What does the source list for `CCOC(=O)OC[C@H]1O[C@@H](OC2=C(C)OC(=C(C)C)C2=O)[C@H](O)[C@@H](O)[C@@H]1O`?
**A.** CC50 [1]: 182 µM; IC50 (B-cell line): > 100 µM; IC50 [2]: > 100 µM; Activity (Mus musculus [3]): 47.6%; Activity (Mus musculus [6]): Active; Activity (Mus musculus [7]): 13.3%

**Q.** Which results are given for `CC1=C(O)C(=O)C(=C2CCCCC2)O1`?
**A.** IC50 (B-cell line): > 100 µM; IC50 [2]: > 100 µM

**Q.** Which results are given for `CC(=O)OC[C@H]1O[C@@H](OC2=C(C)OC(=C3CCNCC3)C2=O)[C@H](OC(C)=O)[C@@H](OC(C)=O)[C@@H]1OC(C)=O`?
**A.** CC50 [1]: 15.5 µM; IC50 (B-cell line): 41.1 µM; IC50 [2]: 29.1 µM; Activity (Mus musculus [3]): 28%; selectivity ratio [4]: 0.8; selectivity ratio [5]: 0.37; Activity (Mus musculus [6]): Active; Activity (Mus musculus [7]): 52.9%

**Q.** Which results are given for `O=C(O)c1cc(/N=N/c2ccc(S(=O)(=O)Nc3ccccn3)cc2)ccc1O` [SULFASALAZINE]?
**A.** Activity (Mus musculus [8]): 9.5%; Activity (Mus musculus [10]): 86.7%; Activity (Mus musculus [9]): 24%

**Q.** Which CC50 [1] does the source give for `CC(=O)OC[C@H]1O[C@@H](OC2=C(C)OC(=C3CCOCC3)C2=O)[C@H](OC(C)=O)[C@@H](OC(C)=O)[C@@H]1OC(C)=O` here?
**A.** The CC50 was 71.9 µM.

**Q.** What about the IC50 (B-cell line) of the same compound?
**A.** The IC50 was 26.4 µM.

**Q.** And the IC50 [2]?
**A.** The IC50 was 43.6 µM.

**Q.** And the Activity (Mus musculus [3])?
**A.** Its Activity is 26.3%.

**Q.** And the selectivity ratio [4]?
**A.** Its selectivity ratio is 1.87.

**Q.** What about the selectivity ratio [5] of the same compound?
**A.** Its selectivity ratio is 3.11.

**Q.** What about the Activity (Mus musculus [6]) of the same compound?
**A.** Its Activity is “Active”.

**Q.** What about the Activity (Mus musculus [7]) of the same compound?
**A.** Its Activity is 30.5%.
